“Also recorded” adds a separate entry of the source. Like-named read-outs stand apart in the source and are kept apart here. Starred links: 1 amine or outer side, 2 acyl side, 3 side chain; linkers in the order of their positions; H or OH if unused. Non-standard residues stand in square brackets, D forms with d. Residues, ends and D or L forms follow the SMILES beside them. *: point of attachment. DOTA = O=C(O)CN1CCN(CC(=O)O)CCN(CC(=O)*)CCN(CC(=O)O)CC1; d(γGlu) = O=C(O)[C@@H](CCC(=O)[*:2])N[*:1]; 1Nal = N[C@@H](Cc1cccc2ccccc12)C(=O)O; 2Nal = N[C@@H](Cc1ccc2ccccc2c1)C(=O)O; PEG5 = NCCOCCOCCOCCOCCOCCC(=O)O; NMeNle = CCCC[C@H](NC)C(=O)O; PEG4 = NCCOCCOCCOCCOCCC(=O)O; Nle = CCCC[C@H](N)C(=O)O

This note sets out measurements from PMC10329608, “Investigation of the structure-activity relationship at the N-terminal part of minigastrin analogs” (EJNMMI Research, 2023).

Data set [1] concerns the target T1, CCK-2R (Rattus norvegicus, UniProt P30553).
T1 construct: endogenous in cells; host or cells: AR42J cells
T1 sequence (P30553 1-452): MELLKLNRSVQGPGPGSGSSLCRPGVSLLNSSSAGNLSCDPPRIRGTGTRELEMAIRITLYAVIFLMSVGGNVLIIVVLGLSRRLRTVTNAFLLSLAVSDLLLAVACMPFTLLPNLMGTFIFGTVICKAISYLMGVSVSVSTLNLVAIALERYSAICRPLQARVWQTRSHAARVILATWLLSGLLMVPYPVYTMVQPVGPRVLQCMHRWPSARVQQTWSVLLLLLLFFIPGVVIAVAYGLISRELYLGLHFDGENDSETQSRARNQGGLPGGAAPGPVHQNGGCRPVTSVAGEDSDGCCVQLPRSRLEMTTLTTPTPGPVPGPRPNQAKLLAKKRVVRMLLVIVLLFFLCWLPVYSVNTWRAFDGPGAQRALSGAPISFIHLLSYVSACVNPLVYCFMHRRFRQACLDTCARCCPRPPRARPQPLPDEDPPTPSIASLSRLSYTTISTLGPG
In words: Competitive binding (IC50) on AR42J cells against [177Lu]Lu-DOTA-PP-F11N. As to conditions: for IC50 / CCK-2R affinity (in words): AR42J cells; for IC50: 3 h; for fold elevated IC50 value versus N-methylated tetrapeptides: B1 versus B3, B5 and B7 versus B3, B4 and B6; for CCK-2R affinity (in words): tetrapeptides. How it is done: IC50 values of all compounds were determined according to a previously published procedure. In brief, competitive binding studies were performed via co-incubation of increasing concentrations of the peptide of interest (10^−10 to 10^–4 M, in triplicate) together with the reference compound [^177Lu]Lu-DOTA-PP-F11N (0.3 pmol/well) on AR42J cells (2 × 10^5 cells per 1 mL/well) at 37 °C for 3 h. Table S1. CCK-2R affinity and lipophilicity data of the compounds evaluated. Affinity data were determined on AR42J cells (2.0 x 10^5 cells/well/mL) and [^177Lu]Lu-DOTA-PP-F11N (0.3 pmol/well) as radiolabeled reference (3 h, 37°C, RPMI 1640, 5 mM L-Gln, 5 mL non-essential amino acids (100x), 10% FCS + 5% BSA (v/v)).

The format of data set [2] is physicochemical. As to conditions: pH 7.4. How it is done:
Lipophilicity (depicted as n-octanol-phosphate-buffered saline solution (PBS, pH = 7.4) distribution coefficient, logD7.4) of ^177Lu-labeled minigastrin analogs was evaluated as previously published.

[3] abbreviates: 2.0 x 10^5 cells/well/mL, [177Lu]Lu-DOTA-PP-F11N 0.3 pmol/well as reference, 37°C, natLu-labeled DOTA peptides, tetrapeptides unlabeled, read-out: IC50.
[4] abbreviates: [177Lu]Lu-DOTA-PP-F11N as reference, 37 °C, values in text, read-out: IC50 (CCK-2R affinity).

Turning to `CCCC[C@H](NC(=O)[C@@H](N)Cc1c[nH]c2ccccc12)C(=O)N[C@@H](CC(=O)O)C(=O)N[C@@H](Cc1cccc2ccccc12)C(N)=O` [B1, H-Trp-Nle-Asp-1-Nal-NH2] (H-W[Nle]D[1Nal]-NH2), the concentration for half-maximal inhibition (IC50) (in general, the concentration needed to halve the response being measured) in data set [1] (setting [3]) worked out at 297 ± 15 nM. Further, in data set [1], the “fold elevated IC50 value versus N-methylated tetrapeptides” value was 50 fold and the “CCK-2R affinity (in words)” value was “significant loss in CCK-2R affinity; also recorded: low CCK-2R affinity”.
Turning to `CCCC[C@H](NC(=O)[C@@H](N)Cc1c[nH]c2ccccc12)C(=O)N[C@@H](CC(=O)O)C(=O)N[C@@H](Cc1ccccc1)C(N)=O` [B2, H-Trp-Nle-Asp-Phe-NH2] (H-W[Nle]DF-NH2), the IC50 in data set [1] (setting [3]) was found to be 466 ± 88 nM. The “CCK-2R affinity (in words)” value in data set [1] is reported as “significant loss in CCK-2R affinity”; in data set [1] (listed as H-Trp-Nle-Asp-Phe-NH2), “noticeably decreased CCK-2R affinity”.
Consider `CCCC[C@@H](C(=O)N[C@@H](CC(=O)O)C(=O)N[C@@H](Cc1cccc2ccccc12)C(N)=O)N(C)C(=O)[C@@H](N)Cc1c[nH]c2ccccc12` [B3, H-Trp-(N-Me)Nle-Asp-1-Nal-NH2] (H-W[NMeNle]D[1Nal]-NH2), for which, in data set [1], the “CCK-2R affinity (in words)” value is on record as “CCK-2R affinities in the low nanomolar range”.
As to `CCCC[C@@H](C(=O)N[C@@H](CC(=O)O)C(=O)N[C@@H](Cc1ccccc1)C(N)=O)N(C)C(=O)[C@@H](N)Cc1c[nH]c2ccccc12` [B4, H-Trp-(N-Me)Nle-Asp-Phe-NH2] (H-W[NMeNle]DF-NH2), the “CCK-2R affinity (in words)” value in data set [1] was “CCK-2R affinities in the low nanomolar range”.
In the case of `CCCC[C@@H](C(=O)N[C@@H](CC(=O)O)C(=O)N[C@@H](Cc1ccc2ccccc2c1)C(N)=O)N(C)C(=O)[C@@H](N)Cc1c[nH]c2ccccc12` [B5, H-Trp-(N-Me)Nle-Asp-2-Nal-NH2] (H-W[NMeNle]D[2Nal]-NH2), the “fold elevated IC50 value versus N-methylated tetrapeptides” value in data set [1] is reported as 3.5- to 19 fold.
As for `CCCC[C@@H](C(=O)N[C@@H](CC(=O)O)C(=O)N[C@@H](Cc1ccc(O)cc1)C(N)=O)N(C)C(=O)[C@@H](N)Cc1c[nH]c2ccccc12` [B6, H-Trp-(N-Me)Nle-Asp-Tyr-NH2] (H-W[NMeNle]DY-NH2), the “CCK-2R affinity (in words)” value in data set [1] is on record as “CCK-2R affinities in the low nanomolar range”.
Consider `CCCC[C@@H](C(=O)N[C@@H](CC(=O)O)C(=O)N[C@@H](Cc1c[nH]c2ccccc12)C(N)=O)N(C)C(=O)[C@@H](N)Cc1c[nH]c2ccccc12` [B7, H-Trp-(N-Me)Nle-Asp-Trp-NH2] (H-W[NMeNle]DW-NH2), for which the “fold elevated IC50 value versus N-methylated tetrapeptides” value in data set [1] is reported as 3.5- to 19 fold.
For the molecule `CCCC[C@@H](C(=O)N[C@@H](CC(=O)O)C(=O)N[C@@H](Cc1cccc2ccccc12)C(N)=O)N(C)C(=O)[C@H](Cc1c[nH]c2ccccc12)NC(=O)CNC(=O)CNC(=O)CNC(=O)CNC(=O)CN1CCN(CC(=O)O)CCN(CC(=O)O)CCN(CC(=O)O)CC1` [[^nat/177Lu]Lu-DOTA-CCK-55, metal not drawn] ({DOTA}-GGGGW[NMeNle]D[1Nal]-NH2), in data set [2], the pH-dependent lipophilicity (logD) (usually the decadic logarithm of the distribution of all forms, ionised or not, between an organic phase and buffer at a given pH) was -2.09 ± 0.07; the logD7.4 result is given as “‒2.7 to ‒2.1”.
In the same order, the values of `CCCC[C@@H](C(=O)N[C@@H](CC(=O)O)C(=O)N[C@@H](Cc1cccc2ccccc12)C(N)=O)N(C)C(=O)[C@H](Cc1c[nH]c2ccccc12)NC(=O)CNC(=O)[C@H](Cc1ccc(O)cc1)NC(=O)CNC(=O)CNC(=O)CN1CCN(CC(=O)O)CCN(CC(=O)O)CCN(CC(=O)O)CC1` [[^nat/177Lu]Lu-DOTA-CCK-56, metal not drawn] ({DOTA}-GGYGW[NMeNle]D[1Nal]-NH2) are -1.38 ± 0.07 and “− 1.9 to − 1.2”.
As for `CCCC[C@@H](C(=O)N[C@@H](CC(=O)O)C(=O)N[C@@H](Cc1cccc2ccccc12)C(N)=O)N(C)C(=O)[C@H](Cc1c[nH]c2ccccc12)NC(=O)CNC(=O)CNC(=O)[C@H](C)NC(=O)CNC(=O)CN1CCN(CC(=O)O)CCN(CC(=O)O)CCN(CC(=O)O)CC1` [[^nat/177Lu]Lu-DOTA-CCK-57, metal not drawn] ({DOTA}-GAGGW[NMeNle]D[1Nal]-NH2), the IC50 in data set [1] (setting [3]) turned out to be 9.67 ± 1.74 nM. Besides, in data set [2], the logD is -1.94 ± 0.06 and the logD7.4 result is on record as “− 1.9 to − 1.2”.
For `CCCC[C@@H](C(=O)N[C@@H](CC(=O)O)C(=O)N[C@@H](Cc1cccc2ccccc12)C(N)=O)N(C)C(=O)[C@H](Cc1c[nH]c2ccccc12)NC(=O)CNC(=O)CNC(=O)CNC(=O)CC[C@@H](NC(=O)CN1CCN(CC(=O)O)CCN(CC(=O)O)CCN(CC(=O)O)CC1)C(=O)O` [[^nat/177Lu]Lu-DOTA-CCK-58, metal not drawn] ({DOTA-d(γGlu)}-GGGW[NMeNle]D[1Nal]-NH2), in data set [2], the pH-dependent lipophilicity (logD) was -2.66 ± 0.06 and the logD7.4 entry is reported as “‒2.7 to ‒2.1”.
For `CCCC[C@@H](C(=O)N[C@@H](CC(=O)O)C(=O)N[C@@H](Cc1cccc2ccccc12)C(N)=O)N(C)C(=O)[C@H](Cc1c[nH]c2ccccc12)NC(=O)CNC(=O)[C@H](Cc1ccc(O)cc1)NC(=O)[C@H](C)NC(=O)CNC(=O)CN1CCN(CC(=O)O)CCN(CC(=O)O)CCN(CC(=O)O)CC1` [[^nat/177Lu]Lu-DOTA-CCK-59, metal not drawn] ({DOTA}-GAYGW[NMeNle]D[1Nal]-NH2), in that order: -1.26 ± 0.08 and “− 1.9 to − 1.2”.
In the same order, the values of `CCCC[C@@H](C(=O)N[C@@H](CC(=O)O)C(=O)N[C@@H](Cc1cccc2ccccc12)C(N)=O)N(C)C(=O)[C@H](Cc1c[nH]c2ccccc12)NC(=O)CNC(=O)[C@H](Cc1ccc(O)cc1)NC(=O)CNC(=O)CC[C@@H](NC(=O)CN1CCN(CC(=O)O)CCN(CC(=O)O)CCN(CC(=O)O)CC1)C(=O)O` [[^nat/177Lu]Lu-DOTA-CCK-60, metal not drawn] ({DOTA-d(γGlu)}-GYGW[NMeNle]D[1Nal]-NH2) are -2.63 ± 0.05 and “‒2.7 to ‒2.1”.
For `CCCC[C@@H](C(=O)N[C@@H](CC(=O)O)C(=O)N[C@@H](Cc1cccc2ccccc12)C(N)=O)N(C)C(=O)[C@H](Cc1c[nH]c2ccccc12)NC(=O)CNC(=O)CNC(=O)[C@H](C)NC(=O)CC[C@@H](NC(=O)CN1CCN(CC(=O)O)CCN(CC(=O)O)CCN(CC(=O)O)CC1)C(=O)O` [[^nat/177Lu]Lu-DOTA-CCK-61, metal not drawn] ({DOTA-d(γGlu)}-AGGW[NMeNle]D[1Nal]-NH2), in that order: -2.56 ± 0.09 and “‒2.7 to ‒2.1”.
As for `CCCC[C@@H](C(=O)N[C@@H](CC(=O)O)C(=O)N[C@@H](Cc1cccc2ccccc12)C(N)=O)N(C)C(=O)[C@H](Cc1c[nH]c2ccccc12)NC(=O)CNC(=O)CN1CCN(CC(=O)O)CCN(CC(=O)O)CCN(CC(=O)O)CC1` [[^nat/177Lu]Lu-DOTA-CCK-62, DOTA-Gly-Trp-(N-Me)Nle-Asp-1-Nal-NH2, metal not drawn] ({DOTA}-GW[NMeNle]D[1Nal]-NH2), in data set [2], the pH-dependent lipophilicity (logD) is -1.34 ± 0.08 and the logD7.4 result is recorded as “− 1.9 to − 1.2”.
With `CCCC[C@@H](C(=O)N[C@@H](CC(=O)O)C(=O)N[C@@H](Cc1cccc2ccccc12)C(N)=O)N(C)C(=O)[C@H](Cc1c[nH]c2ccccc12)NC(=O)CCOCCOCCOCCOCCOCCNC(=O)CN1CCN(CC(=O)O)CCN(CC(=O)O)CCN(CC(=O)O)CC1` [[^nat/177Lu]Lu-DOTA-CCK-63, metal not drawn] ({DOTA-PEG5}-W[NMeNle]D[1Nal]-NH2), the half-maximal inhibitory concentration (IC50) in data set [1] (setting [4]) amounted to 8.8 ± 1.3 nM. This molecule also gave a logD in data set [2] of -2.13 ± 0.05.
With `CCCC[C@@H](C(=O)N[C@@H](CC(=O)O)C(=O)N[C@@H](Cc1cccc2ccccc12)C(N)=O)N(C)C(=O)[C@H](Cc1c[nH]c2ccccc12)NC(=O)CCOCCOCCOCCOCCNC(=O)CN1CCN(CC(=O)O)CCN(CC(=O)O)CCN(CC(=O)O)CC1` [[^nat/177Lu]Lu-DOTA-CCK-64, metal not drawn] ({DOTA-PEG4}-W[NMeNle]D[1Nal]-NH2), the IC50 in data set [1] (setting [3]) turned out to be 7.64 ± 0.86 nM; in data set [1] (setting [4]), 7.6 ± 0.9 nM. Besides, the pH-dependent lipophilicity (logD) in data set [2] is -2.21 ± 0.07.
Consider `CCCC[C@@H](C(=O)N[C@@H](CC(=O)O)C(=O)N[C@@H](Cc1cccc2ccccc12)C(N)=O)N(C)C(=O)[C@H](Cc1c[nH]c2ccccc12)NC(=O)CNC(=O)[C@H](Cc1ccc(O)cc1)NC(=O)[C@H](C)NC(=O)CC[C@@H](NC(=O)CN1CCN(CC(=O)O)CCN(CC(=O)O)CCN(CC(=O)O)CC1)C(=O)O` [[^nat/177Lu]Lu-DOTA-γ-MGS5, DOTA-D-γ-Glu-Ala-Tyr-Gly-Trp-(N-Me)Nle-Asp-1-Nal-NH2, metal not drawn, reference compound] ({DOTA-d(γGlu)}-AYGW[NMeNle]D[1Nal]-NH2), for which, in data set [2], the log distribution coefficient (logD) was -2.24 ± 0.04 and the logD7.4 result is recorded as “− 2.24 ± 0.04”.
